Data on one compound can be found in patent US20240409934A1, “FOXO1-TARGETED THERAPY FOR THE TREATMENT OF CANCER” (BOARD OF REGENTS, THE UNIVERSITY OF TEXAS SYSTEM, priority 2021, published 2024).

In assay [1] the test system is BT549 cells. Nature of the assay: Gene expression by qRT-PCR (TUBB reference). The class given is cell-based. The protocol:
(§1) Cell culture and drug treatments. Cell lines were obtained from ATCC (American Type Culture Collection, Manassas, VA) and grown under standard conditions (5% CO2, 10% FBS (fetal bovine serum), with 5% antifungal/antibacterial). Cell lines were tested for Mycoplasma using the MycoAlert Mycoplasma Detection Kit (Lonza, Basel Switzerland, cat: LT07-218); all experiments were done with mycoplasma negative cells. U87MG cells were propagated in MEM (Minimal Essential Medium). BT549 and DBTRG cells were propagated in RPMI (Roswell Park Memorial Institute 1640 Medium). LN18, U118MG, A172 and LN229 cells were propagated in DMEM (Dulbecco's Modified Eagle Medium). Neurosphere/cancer stem cell cultures for U87MG and BT549 cell lines were plated with 40,000 cells per mL in 3D Tumorsphere Medium XF (Sigma cat: C-28070, Burlington, MA). BT549 cancer stem cell cultures were supplemented with 1XB27 XenoFree CTS (Gibco/Thermo Fisher Waltham, MA, USA). AS1842856 was purchased from Calbiochem (Danvers, MA) and utilized at 200 nM, 500 nM and 1 μM final concentrations as indicated. AS1708727 was purchased from MedChem Express (Monmouth Junction, NJ) and was used at 0.5 μM, 1.0 µM and 2.0 μM concentrations. 5-aza-2'-deoxycytidine (5-AZA) was purchased from Millipore/Sigma (Burlington, MA) and utilized at a final concentration of 3 μM. Total RNA was prepared using the Qiagen RNeasy kit (Hilden, Germany), which was then used to generate cDNA using Superscript Reverse Transcriptase II (Invitrogen, Carlsbad, CA). Samples (cDNAs) were analyzed using (Power SYBR Green Master Mix, Applied Biosystems, Foster City, CA) and the ABI Step-One Real-time system (Carlsbad, CA). Expression levels were normalized to Beta-Tubulin, TUBB in gene expression experiments and calculated using 2-4ACT method (Livak et al., 2001). Primer sequences are detailed in Table 1. MDA-MB-468 cells were grown to log phase in DMEM with 10% FBS without antibiotics. BT549 cells were grown to log phase in DMEM with 10% FBS without antibiotics. Cells were transfected with FOXO1 esiRNA (EHU156591 Sigma, St. Louis, MO) or EGFP control esiRNA (EHUEGFP) using Lipofectamine 3000 (utilized only […] reagent, Invitrogen, Carlsbad, CA).
For orientation: Real-time PCR tracks product formation cycle by cycle.

For assay [2], the system named is MDA-MB-468 cells. Nature of the assay: Gene expression by qRT-PCR (TUBB reference). The assay is classed as cell-based. How it is done: as §1
The test system of assay [3] is A172. Nature of the assay: Gene expression by qRT-PCR (TUBB reference). Particulars: 1 μM for 48 hours. The assay is classed as cell-based. How it is done: (§2) Cell culture and drug treatments. Cell lines were obtained from ATCC (American Type Culture Collection, Manassas, VA) and grown under standard conditions (5% CO2, 10% FBS (fetal bovine serum), with 5% antifungal/antibacterial). Cell lines were tested for Mycoplasma using the MycoAlert Mycoplasma Detection Kit (Lonza, Basel Switzerland, cat: LT07-218); all experiments were done with mycoplasma negative cells. U87MG cells were propagated in MEM (Minimal Essential Medium). BT549 and DBTRG cells were propagated in RPMI (Roswell Park Memorial Institute 1640 Medium). LN18, U118MG, A172 and LN229 cells were propagated in DMEM (Dulbecco's Modified Eagle Medium). Neurosphere/cancer stem cell cultures for U87MG and BT549 cell lines were plated with 40,000 cells per mL in 3D Tumorsphere Medium XF (Sigma cat: C-28070, Burlington, MA). BT549 cancer stem cell cultures were supplemented with 1XB27 XenoFree CTS (Gibco/Thermo Fisher Waltham, MA, USA). AS1842856 was purchased from Calbiochem (Danvers, MA) and utilized at 200 nM, 500 nM and 1 μM final concentrations as indicated. AS1708727 was purchased from MedChem Express (Monmouth Junction, NJ) and was used at 0.5 μM, 1.0 µM and 2.0 μM concentrations. 5-aza-2′-deoxycytidine (5-AZA) was purchased from Millipore/Sigma (Burlington, MA) and utilized at a final concentration of 3 μM. Total RNA was prepared using the Qiagen RNeasy kit (Hilden, Germany), which was then used to generate cDNA using Superscript Reverse Transcriptase II (Invitrogen, Carlsbad, CA). Samples (cDNAs) were analyzed using (Power SYBR Green Master Mix, Applied Biosystems, Foster City, CA) and the ABI Step-One Real-time system (Carlsbad, CA). Expression levels were normalized to Beta-Tubulin, TUBB in gene expression experiments and calculated using 2-4ACT method (Livak et al., 2001). Primer sequences are detailed in Table 1.

For assay [4], the system named is DBTRG. Description: Gene expression by qRT-PCR (TUBB reference). The assay is classed as cell-based. The note with it: 1 μM for 48 hours. The protocol: as §2
Assay [5] has as its system LN18. Description: Gene expression by qRT-PCR (TUBB reference). The assay is classed as cell-based. The note with it: 1 μM for 48 hours. The protocol:
as §2

The subject of assay [6] is LN229. Description: Gene expression by qRT-PCR (TUBB reference). The assay is classed as cell-based. Particulars: 1 μM for 48 hours. The protocol:
as §2

For assay [7], the system named is U87MG cells. Nature of the assay: Gene expression by qRT-PCR (TUBB reference). The assay is classed as cell-based. The protocol:
as §2

Assay [8] addresses FOXO1 (Homo sapiens, UniProt Q12778). The note with it: cited from earlier work.

Chain of FOXO1 (Q12778 whole entry, species assumed): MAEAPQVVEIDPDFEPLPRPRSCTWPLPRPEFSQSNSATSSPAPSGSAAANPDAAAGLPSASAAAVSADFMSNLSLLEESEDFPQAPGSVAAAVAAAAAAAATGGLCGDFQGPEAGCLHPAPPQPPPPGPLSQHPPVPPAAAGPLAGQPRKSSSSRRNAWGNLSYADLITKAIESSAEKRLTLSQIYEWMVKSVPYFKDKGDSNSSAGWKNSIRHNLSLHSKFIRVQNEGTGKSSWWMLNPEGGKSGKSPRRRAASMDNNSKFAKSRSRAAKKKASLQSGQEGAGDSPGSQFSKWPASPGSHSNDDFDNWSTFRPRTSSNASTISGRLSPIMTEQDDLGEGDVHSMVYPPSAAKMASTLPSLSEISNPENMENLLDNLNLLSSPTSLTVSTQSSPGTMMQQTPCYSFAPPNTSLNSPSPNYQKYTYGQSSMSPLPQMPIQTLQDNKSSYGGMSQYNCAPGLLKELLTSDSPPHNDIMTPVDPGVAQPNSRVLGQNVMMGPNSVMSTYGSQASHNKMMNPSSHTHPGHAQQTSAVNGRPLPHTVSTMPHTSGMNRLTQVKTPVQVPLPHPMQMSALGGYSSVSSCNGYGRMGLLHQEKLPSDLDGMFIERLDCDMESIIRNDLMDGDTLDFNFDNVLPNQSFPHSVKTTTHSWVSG

For `CCn1cc(C(=O)O)c(=O)c2c(N)c(F)c(NC3CCCCC3)cc21` [AS1842856, 5-Amino-7-(cyclohexylamino)-1-ethyl-6-fluoro-4-oxo-1,4-dihydroquinoline-3-carboxylic acid], the “FAS and BIM gene induction, comparison of the two inhibitors” value in assay [1] is “robustly caused FAS and BIM”; in assay [2] it was “robustly caused FAS and BIM”. Moreover, the FOXO1 gene expression result in assay [1] (1 μM for 48 hours) is recorded as “increased FOXO1 gene expression”. The “apoptotic genes FAS and/or BIM expression” value in assay [1] (1 μM for 48 hours), in assay [2] (1 μM for 48 hours), in assay [3], in assay [4], in assay [5] and in assay [6] was “induced apoptotic genes FAS and/or BIM” in each case. Further, the “apoptotic genes FAS and/or BIM expression” value in assay [7] (1 μM for 48 hours) was “induced apoptotic genes FAS and/or BIM”. For the same compound, the FOXO1 expression entry in assay [2] (48 hours of treatment) is reported as “decreased FOXO1 expression”. In addition, in assay [7], the FAS expression result is given as “induced”. Also, the “FOXO1 DNA binding and transactivation” value in assay [8] was “reduces DNA binding and transactivation”.
